The experiment relates to glycogen synthase. As to the kind of experiment: Glycogen Synthase (GS) Assay. The format is biochemical. Particulars: for EC50: compound concentration needed to give 50% maximum activation; for GS SC200: compound concentration needed to stimulate 200% of the enzyme activity. The procedure:
The following tests were carried out in order to determine the activity of the compounds of formula (I).
Twelve μL per well of substrate solution containing glycogen (4.32 mg/mL), 2.67 mM UDP-glucose, 21.6 mM phospho(enol)pyruvate and 2.7 mM NADH in 30 mM glycylglycine, pH 7.3 buffer was added into a polystyrene 384-well assay plate (BD Biosciences).
Compound solutions (8 μL/well) at various concentrations (0-300 μM) were added to the assay plate (columns 5-24). Compound solution contains 30 mM glycylglycine, pH 7.3, 40 mM KCl, 20 mM MgC12, 9.2% DMSO, with (columns 15-24) or without (columns 5-14) 20 mM glucose 6-phosphate.
Enzyme solution (12 μL/well) containing glycogen synthase (16.88 μg/mL), pyruvate kinase (0.27 mg/mL), lactate dehydrogenase (0.27 mg/mL) in 50 mM Tris-HCl, pH 8.0, 27 mM DTT and bovine serum albumin (BSA, 0.2 mg/mL) was added to the assay plate (columns 3-24). As a blank control, enzyme solution without glycogen synthase was added into the top half wells of columns 1-2. To the bottom half wells of columns 1-2 were added a known activator, glucose 6-phosphate (at final concentration 5 mM) in addition to the enzyme solution. The reaction mixture was incubated at room temperature. The assay plate was then read for absorbance at 340 nm on an Envision reader every 3 minutes up to a total of 15 minutes.
The enzyme activity (with or without compound) was calculated by the reaction rate and represented by the optical density change (SOD) per minute. Percent stimulation of glycogen synthase activity by a compound at various concentrations was calculated by the following formula: […]
where Rs is the reaction rate of the enzyme in the presence of compound and Rt is the reaction rate of the enzyme in the absence of compound.
SC200 is defined as the compound concentration that is needed to stimulate 200% of the enzyme activity. EC50 is defined as the compound concentration that is needed to give 50% maximum activation.
Compounds from Example 1 through Example 36 were assayed according to assay procedures described above and the results are listed in Table 1 below: […]

The values that follow come from patent publication US20110118314A1, “PIPERIDINE ANALOGS AS GLYCOGEN SYNTHASE ACTIVATORS” (priority 2009, published 2011).

By EC50 is commonly meant the concentration that produces a half-maximal response. For `COc1cc(F)c(F)cc1-c1ccc(OCC2CCCN(C(=O)[C@H](CC(=O)O)NC(=O)OC(C)(C)C)C2)cc1` (stereo partly drawn) [Example 12, (S)-3-tert-Butoxycarbonylamino-4-[3-(4′,5′-difluoro-2′-methoxy-biphenyl-4-yloxymethyl)-piperidin-1-yl]-4-oxo-butyric acid], the EC50 came to 11.1 µM and the “GS SC200” value amounted to 3.74 µM. For `COc1cc(F)c(F)cc1-c1ccc(OCC2CCCN(C(=O)[C@H](CC(=O)O)N(C)C(C)=O)C2)cc1` (stereo partly drawn) [Example 13, (S)-3-(Acetyl-methyl-amino)-4-[3-(4′,5′-difluoro-2′-methoxy-biphenyl-4-yloxymethyl)-piperidin-1-yl]-4-oxo-butyric acid], in that order: 12.3 µM and 2.12 µM. Consider `COc1cc(F)c(F)cc1-c1ccc(OCC2CCCN(C(=O)C3CN(C(=O)OC(C)(C)C)CC3C(=O)O)C2)cc1` (centres unmarked) [Example 14, 4-[3-(4′,5′-Difluoro-2′-methoxy-biphenyl-4-yloxymethyl)-piperidine-1-carbonyl]-pyrrolidine-1,3-dicarboxylic acid 1-tert-butyl ester], for which it took 3.72 µM to reach a half-maximal effect (EC50) and the “GS SC200” value stood at 1.94 µM. As for `COc1cc(F)c(F)cc1-c1ccc(OCC2CCCN(C(=O)C3CN(C(C)=O)CC3C(=O)O)C2)cc1` (centres unmarked) [Example 15, 1-Acetyl-4-[3-(4′,5′-difluoro-2′-methoxy-biphenyl-4-yloxymethyl)-piperidine-1-carbonyl]-pyrrolidine-3-carboxylic acid], the concentration for a half-maximal effect (EC50) amounted to 5.78 µM and the “GS SC200” value is 3.65 µM.

Regarding `COc1cc(F)c(F)cc1-c1ccc(OCC2CCCN(C(=O)C3CN(C(N)=O)CC3C(=O)O)C2)cc1` (centres unmarked) [Example 16, 1-Carbamoyl-4-[3-(4′,5′-difluoro-2′-methoxy-biphenyl-4-yloxymethyl)-piperidine-1-carbonyl]-pyrrolidine-3-carboxylic acid], the midpoint of the response, the EC50, lay at 6.48 µM and the “GS SC200” value amounted to 0.42 µM. In the same order, the values of `COc1cc(F)c(F)cc1-c1ccc(OCC2CCCN(C(=O)C(C)C(=O)O)C2)cc1` (centres unmarked) [Example 17, 3-[3-(4′,5′-Difluoro-2′-methoxy-biphenyl-4-yloxymethyl)-piperidin-1-yl]-2-methyl-3-oxo-propionic acid] are 0.68 µM and 0.29 µM.

Compound `CCC(C(=O)O)C(=O)N1CCCC(COc2ccc(-c3cc(F)c(F)cc3OC)cc2)C1` (centres unmarked) [Example 18, 2-[3-(4′,5′-Difluoro-2′-methoxy-biphenyl-4-yloxymethyl)-piperidine-1-carbonyl]-butyric acid] yielded a concentration giving a half-maximal response (EC50) of 0.98 µM. With `COc1cc(F)c(F)cc1-c1ccc(OCC2CCCN(C(=O)C(C(=O)O)C(C)(C)C)C2)cc1` (centres unmarked) [Example 19, 2-[3-(4′,5′-Difluoro-2′-methoxy-biphenyl-4-yloxymethyl)-piperidine-1-carbonyl]-3,3-dimethyl-butyric acid], the half-maximal effective concentration (EC50) was 5.35 µM and the “GS SC200” value is 2.21 µM. With `COc1cc(F)c(F)cc1-c1ccc(OCC2CCCN(C(=O)CC(N)=O)C2)cc1` (centres unmarked) [Example 20, 3-[3-(4′,5′-Difluoro-2′-methoxy-biphenyl-4-yloxymethyl)-piperidin-1-yl]-3-oxo-propionamide], the concentration for a half-maximal effect (EC50) is 12.7 µM and the “GS SC200” value worked out at 6.34 µM.

For the compound `COc1cc(F)c(F)cc1-c1ccc(OCC2CCCN(C(=O)C3CCS(=O)(=O)N3)C2)cc1` (centres unmarked) [Example 21, [3-(4′,5′-Difluoro-2′-methoxy-biphenyl-4-yloxymethyl)-piperidin-1-yl]-(1,1-dioxido-3-isothiazolidin-3-yl)-methanone], the midpoint of the response, the EC50, lay at 7.3 µM. In the case of `COc1cc(F)c(F)cc1-c1ccc(OCC2CCCN(C(=O)N(CC(=O)O)Cc3ccccc3)C2)cc1` (centres unmarked) [Example 22, {Benzyl-[3-(4′,5′-difluoro-2′-methoxy-biphenyl-4-yloxymethyl)-piperidine-1-carbonyl]-amino}-acetic acid], the EC50 is 2.65 µM and the “GS SC200” value worked out at 0.12 µM.

With `COc1cc(F)c(F)cc1-c1ccc(OCC2CCCN(C(=O)N(C)CC(=O)O)C2)cc1` (centres unmarked) [Example 25, {[3-(4′,5′-Difluoro-2′-methoxy-biphenyl-4-yloxymethyl)-piperidine-1-carbonyl]-methyl-amino}-acetic acid], the concentration for a half-maximal effect (EC50) turned out to be 0.29 µM and the “GS SC200” value amounted to 0.02 µM.

Consider `COc1cc(F)c(F)cc1-c1ccc(OCC2CCN(C(=O)N(C)CC(=O)O)C2)cc1` (centres unmarked) [Example 26, {[3-(4′,5′-Difluoro-2′-methoxy-biphenyl-4-yloxymethyl)-pyrrolidine-1-carbonyl]-methyl-amino}-acetic acid], for which the EC50 is 24.7 µM and the “GS SC200” value stood at 5.97 µM. `COc1cc(F)c(F)cc1-c1ccc(OCC2CCCN(C(=O)N3CCC[C@H]3C(=O)O)C2)cc1` (stereo partly drawn) [Example 27, (S)-1-[3-(4′,5′-Difluoro-2′-methoxy-biphenyl-4-yloxymethyl)-piperidine-1-carbonyl]-pyrrolidine-2-carboxylic acid]: the EC50 was found to be 1.29 µM and the “GS SC200” value turned out to be 0.22 µM. With `COc1cc(F)c(F)cc1-c1ccc(OCC2CCCN(C(=O)N(CCC(=O)O)Cc3ccccc3)C2)cc1` (centres unmarked) [Example 28, 3-{Benzyl-[3-(4′,5′-difluoro-2′-methoxy-biphenyl-4-yloxymethyl)-piperidine-1-carbonyl]-amino}-propionic acid], the EC50 amounted to 6.29 µM and the “GS SC200” value is 2.52 µM. Turning to `COc1cc(F)c(F)cc1-c1ccc(OCC2CCN(C(=O)N(CCC(=O)O)Cc3ccccc3)C2)cc1` (centres unmarked) [Example 29, 3-{Benzyl-[3-(4′,5′-difluoro-2′-methoxy-biphenyl-4-yloxymethyl)-pyrrolidine-1-carbonyl]-amino}-propionic acid], the concentration for a half-maximal effect (EC50) was found to be 10.4 µM and the “GS SC200” value worked out at 2.55 µM. In the same order, the values of `COc1cc(F)c(F)cc1-c1ccc(OCC2CCCN(C(=O)N(C)Cc3nnn[nH]3)C2)cc1` (centres unmarked) [Example 30, 3-(4′,5′-Difluoro-2′-methoxy-biphenyl-4-yloxymethyl)-piperidine-1-carboxylic acid methyl-(1H-tetrazol-5-ylmethyl)-amide] are 8.29 µM and 1.38 µM. In the same order, the values of `COc1cc(F)c(F)cc1-c1ccc(OCC2CCCN(C(=O)N(C)CC(=O)NS(C)(=O)=O)C2)cc1` (centres unmarked) [Example 31, 3-(4′,5′-Difluoro-2′-methoxy-biphenyl-4-yloxymethyl)-piperidine-1-carboxylic acid (2-methanesulfonylamino-2-oxo-ethyl)-methyl-amide] are 0.38 µM and 0.11 µM. In the same order, the values of `COc1cc(F)c(F)cc1-c1ccc(OC[C@H]2CCCN(C(=O)N(C)CC(=O)NS(C)(=O)=O)C2)cc1` [Example 32, (S)-3-(4′,5′-Difluoro-2′-methoxy-biphenyl-4-yloxymethyl)-piperidine-1-carboxylic acid (2-methanesulfonylamino-2-oxo-ethyl)-methyl-amide] are 0.2 µM and 0.06 µM. Turning to `COc1cc(F)c(F)cc1-c1ccc(OC[C@@H]2CCCN(C(=O)N(C)CC(=O)NS(C)(=O)=O)C2)cc1` [Example 33, (R)-3-(4′,5′-Difluoro-2′-methoxy-biphenyl-4-yloxymethyl)-piperidine-1-carboxylic acid (2-methanesulfonylamino-2-oxo-ethyl)-methyl-amide], the midpoint of the response, the EC50, lay at 2.03 µM and the “GS SC200” value is 0.41 µM. In the same order, the values of `COc1cc(F)c(F)cc1-c1ccc(OCC2CCCN(C(=O)N(CC(=O)NS(C)(=O)=O)Cc3ccccc3)C2)cc1` (centres unmarked) [Example 34, 3-(4′,5′-Difluoro-2′-methoxy-biphenyl-4-yloxymethyl)-piperidine-1-carboxylic acid benzyl-(2-methanesulfonylamino-2-oxo-ethyl)-amide] are 0.52 µM and 0.07 µM. In the case of `COc1cc(F)c(F)cc1-c1ccc(OCC2CCN(C(=O)N(CC(=O)NS(C)(=O)=O)Cc3ccccc3)C2)cc1` (centres unmarked) [Example 35, 3-(4′,5′-Difluoro-2′-methoxy-biphenyl-4-yloxymethyl)-pyrrolidine-1-carboxylic acid benzyl-(2-methanesulfonylamino-2-oxo-ethyl)-amide], the EC50 is 0.82 µM and the “GS SC200” value is 0.28 µM. On to `COc1cc(F)c(F)cc1-c1ccc(OCC2CCN(C(=O)N(C)CC(=O)NS(C)(=O)=O)C2)cc1` (centres unmarked) [Example 36, 3-(4′,5′-Difluoro-2′-methoxy-biphenyl-4-yloxymethyl)-pyrrolidine-1-carboxylic acid (2-methanesulfonylamino-2-oxo-ethyl)-methyl-amide], for which the EC50 turned out to be 7.68 µM and the “GS SC200” value turned out to be 0.8 µM.
